# Measurements reported in patent US20060173015A1, “Cyclohexyldiamines as selective alpha 1a/1d adrenoreceptor antagonists for the treatment of benign prostatic hypertrophy and lower urinary tract symptoms” (priority 2004, published 2006).
# Experiments:
# α1d-AR = target: T1, α1d-AR (Homo sapiens, UniProt P25100); assay: α1-Adrenergic receptor radio-ligand (125I-HEAT) binding assay, α1d subtype; conditions: COS-7 cell membranes, 125I-HEAT; read-out: Receptor Binding, Ki α1d-AR
# T1 construct: expressed in transfected cells; host or cells: COS-7
# T1 sequence (P25100 1-572): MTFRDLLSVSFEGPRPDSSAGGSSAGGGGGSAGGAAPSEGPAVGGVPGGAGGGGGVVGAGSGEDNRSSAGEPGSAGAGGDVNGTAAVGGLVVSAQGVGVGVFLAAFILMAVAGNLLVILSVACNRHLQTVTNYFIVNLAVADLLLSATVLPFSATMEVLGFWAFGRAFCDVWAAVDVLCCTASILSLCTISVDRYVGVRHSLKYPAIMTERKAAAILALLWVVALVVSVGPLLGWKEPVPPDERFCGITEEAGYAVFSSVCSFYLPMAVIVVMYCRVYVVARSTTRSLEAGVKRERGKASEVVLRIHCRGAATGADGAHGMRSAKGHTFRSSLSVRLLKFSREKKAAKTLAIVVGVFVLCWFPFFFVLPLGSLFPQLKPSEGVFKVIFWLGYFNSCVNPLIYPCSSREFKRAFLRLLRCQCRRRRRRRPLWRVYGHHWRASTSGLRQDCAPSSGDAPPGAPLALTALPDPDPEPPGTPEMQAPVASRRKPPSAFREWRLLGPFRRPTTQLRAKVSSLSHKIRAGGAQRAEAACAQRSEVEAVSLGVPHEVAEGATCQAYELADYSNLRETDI
# MAP = assay: Phenylephrine-induced MAP in a conscious canine model; format: in vivo; conditions: conscious dog
# Protocol: In-Vivo Evaluation of α1-Adrenergic Antagonists on IUP and MAP in a Conscious Canine Model
# An anesthetized dog was fitted with a balloon catheter for the measurement of changes in prostatic IUP and with a number of implanted pressure transducers and telemetry transmitters for measuring MAP.
# The pressor effects of challenge doses […] of the α-adrenergic agonist phenylephrine upon IUP and MAP were measured before and at various time points after a single dose (p.o.) of an α-adrenergic antagonist test compound (Compound 69) of the present invention.
# Each treatment group was dosed with a test compound (0.1, 0.3, 1.0 and 3.0 mg/kg) in four separate experiments. The first challenge dose of phenylephrine for each treatment group was administered at the time of the test compound dose (time 0). The value for the first challenge dose represents an average of up to three challenge doses administered prior to time 0.
# Subsequent challenge doses for all treatment groups were administered at 30 min. then one hour and two hours after time 0.
# The final challenge doses for the 0.1 and 0.3 mg/kg groups were administered at four and six hours after time 0. The final challenge doses for the 1.0 mg/kg group were administered at four, six and eight hours after time 0. The final challenge doses for the 3.0 mg/kg group were administered at four, six, 12 and 24 hours after time 0.
# A pressure transducer and telemetry transmitter (DSI TA11PA-D70 35 cm, Data Sciences International, St. Paul, Minn.) were implanted according to directions in “PA Device Surgical Manual” provided by the manufacturer.
# A test compound was administered via the cephalic or saphenous vein using an appropriately sized IV catheter (Surflo, Terumo Medical Corporation or equivalent).
# Prior to test compound administration, IUP and MAP responses to an individualized dose of phenylephrine (either 10 or 15 μg/kg IV, depending on the individual animal's response) was repeated 2 to 3 times to establish a baseline response. After test compound administration, the individualized phenylephrine dose was administered to each animal at predetermined intervals over a period of up to 24 hours.
# Data for phenylephrine-induced changes in IUP and MAP were tabulated for each treatment group and each experiment. A mean value and standard deviation for the phenylephrine-induced changes to the effect of a test compound on IUP and MAP at each dose was calculated and tabulated for each treatment group over the length of the study.
structure (smiles),measurement,setting,value
"COc1ccc(S(=O)(=O)N[C@H]2CC[C@@H](N3CCN(c4ccccc4OCC(F)(F)F)CC3)CC2)cc1OC [Cpd 69, 3,4-Dimethoxy-N-cis-(4-{4-[2-(2,2,2-trifluoro-ethoxy)-phenyl]-piperazin-1-yl}-cyclohexyl)-benzenesulfonamide]",Ki,α1d-AR,0.92 nM
same,"MAP, normalized % of baseline (mean)","MAP; 0.1 mg/kg p.o., 0 hrs (baseline)",100%
same,"MAP, normalized % of baseline (mean)","MAP; 0.1 mg/kg p.o., 0.5 hrs after dose",87.7%
same,"MAP, normalized % of baseline (mean)","MAP; 0.1 mg/kg p.o., 1 hrs after dose",93.3%
same,"MAP, normalized % of baseline (mean)","MAP; 0.1 mg/kg p.o., 2 hrs after dose",80.1%
same,"MAP, normalized % of baseline (mean)","MAP; 0.1 mg/kg p.o., 4 hrs after dose",89.7%
same,"MAP, normalized % of baseline (mean)","MAP; 0.1 mg/kg p.o., 6 hrs after dose",91.0%
same,"MAP, normalized % of baseline (mean)","MAP; 0.3 mg/kg p.o., 0 hrs (baseline)",100%
same,"MAP, normalized % of baseline (mean)","MAP; 0.3 mg/kg p.o., 0.5 hrs after dose",64.9%
same,"MAP, normalized % of baseline (mean)","MAP; 0.3 mg/kg p.o., 1 hrs after dose",59.3%
same,"MAP, normalized % of baseline (mean)","MAP; 0.3 mg/kg p.o., 2 hrs after dose",67.7%
same,"MAP, normalized % of baseline (mean)","MAP; 0.3 mg/kg p.o., 4 hrs after dose",85.6%
same,"MAP, normalized % of baseline (mean)","MAP; 0.3 mg/kg p.o., 6 hrs after dose",103.9%
same,"MAP, normalized % of baseline (mean)","MAP; 1.0 mg/kg p.o., 0 hrs (baseline)",100%
same,"MAP, normalized % of baseline (mean)","MAP; 1.0 mg/kg p.o., 0.5 hrs after dose",47.3%
same,"MAP, normalized % of baseline (mean)","MAP; 1.0 mg/kg p.o., 1 hrs after dose",37.2%
same,"MAP, normalized % of baseline (mean)","MAP; 1.0 mg/kg p.o., 2 hrs after dose",52.8%
same,"MAP, normalized % of baseline (mean)","MAP; 1.0 mg/kg p.o., 4 hrs after dose",61.3%
same,"MAP, normalized % of baseline (mean)","MAP; 1.0 mg/kg p.o., 6 hrs after dose",76.6%
same,"MAP, normalized % of baseline (mean)","MAP; 1.0 mg/kg p.o., 8 hrs after dose",87.8%
same,"MAP, normalized % of baseline (mean)","MAP; 3.0 mg/kg p.o., 0 hrs (baseline)",100%
same,"MAP, normalized % of baseline (mean)","MAP; 3.0 mg/kg p.o., 0.5 hrs after dose",43.4%
same,"MAP, normalized % of baseline (mean)","MAP; 3.0 mg/kg p.o., 1 hrs after dose",19.7%
same,"MAP, normalized % of baseline (mean)","MAP; 3.0 mg/kg p.o., 2 hrs after dose",21.7%
same,"MAP, normalized % of baseline (mean)","MAP; 3.0 mg/kg p.o., 4 hrs after dose",39.8%
same,"MAP, normalized % of baseline (mean)","MAP; 3.0 mg/kg p.o., 6 hrs after dose",50.2%
same,"MAP, normalized % of baseline (mean)","MAP; 3.0 mg/kg p.o., 12 hrs after dose",80.2%
same,"MAP, normalized % of baseline (mean)","MAP; 3.0 mg/kg p.o., 24 hrs after dose",95.1%
